From patent publication US8124793B2, “Derivatives of ethylene methanedisulfonate as cancer chemotherapeutic agents” (priority 2007, dated 2012)

Assays:
Format in all cases: cell-based
DU-145 = test: NCI screen, growth of human tumor cells: Prostate Cancer DU-145; details: DU-145 (Prostate Cancer), 10^−4 molar
Procedure, shortened: (§1)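 Percent-growth read-out from the NCI cancer cell screen; data annotated by cancer type and molar concentration, ≥60 points per compound.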

RXF-393 = test: NCI screen, growth of human tumor cells: Renal Cancer RXF-393; details: RXF-393 (Renal Cancer), 10^−4 molar
Procedure, shortened: as §1

CAKI-1 = test: NCI screen, growth of human tumor cells: Renal Cancer CAKI-1; details: CAKI-1 (Renal Cancer), 10^−4 molar
Procedure, shortened: as §1

HOP-62 = test: NCI screen, growth of human tumor cells: Non-Small Cell Lung HOP-62; details: HOP-62 (Non-Small Cell Lung), 10^−4 molar
Procedure, shortened: as §1

UACC-62 = test: NCI screen, growth of human tumor cells: Melanoma UACC-62; details: UACC-62 (Melanoma), 10^−4 molar
Procedure, shortened: as §1

UACC-257 = test: NCI screen, growth of human tumor cells: Melanoma UACC-257; details: UACC-257 (Melanoma), 10^−4 molar
Procedure, shortened: as §1

NCI-H522 = test: NCI screen, growth of human tumor cells: Non-Small Cell Lung NCI-H522; details: NCI-H522, 10^−4 molar
Procedure, shortened: as §1

SW620 = test: NCI screen, growth of human tumor cells: Colon Cancer SW620; details: SW620 (Colon Cancer), 10^−4 molar
Method: (§2) In the NCI screening process, each compound was tested and described by a minimum of 60 data points. The test data include, but are not limited to the type of cancer, the molar concentration used in the screen, and the percent growth of the cancer. In some cases, NMR and elemental analysis were used for structural assignment.

786-0 = test: NCI screen, growth of human tumor cells: Renal Cancer 786-0; details: 786-0 (Renal Cancer), 10^−4 molar
Procedure, shortened: as §1

MDA-MB-435 = test: NCI screen, growth of human tumor cells: Breast Cancer MDA-MB-435; details: MDA-MB-435 (Breast Cancer), 10^−4 molar
Procedure, shortened: as §1

EKVX = test: NCI screen, growth of human tumor cells: Non-Small Cell Lung EKVX; details: EKVX, 10^−4 molar
Procedure, shortened: as §1

OVCAR-4 = test: NCI screen, growth of human tumor cells: Ovarian Cancer OVCAR-4; details: OVCAR-4, 10^−4 molar
Procedure, shortened: as §1

U-251 = test: NCI screen, growth of human tumor cells: CNS Cancer U-251; details: U-251 (CNS Cancer), 10^−4 molar
Procedure, shortened: as §1

NCI-H23 = test: NCI screen, growth of human tumor cells: Non-Small Cell Lung NCI-H23; details: NCI-H23, 10^−4 molar
Procedure, shortened: as §1

IGROVI = test: NCI screen, growth of human tumor cells: Ovarian Cancer IGROVI; details: IGROVI (Ovarian Cancer), 10^−4 molar
Procedure, shortened: as §1

NCI-H460 = test: NCI screen, growth of human tumor cells: Non-Small Cell Lung NCI-H460; details: NCI-H460 (Non-Small Cell Lung), 10^−4 molar
Procedure, shortened: as §1

NCI-H322M = test: NCI screen, growth of human tumor cells: Non-Small Cell Lung NCI-H322M; details: NCI-H322M (Non-Small Cell Lung), 10^−4 molar
Procedure, shortened: as §1

HCT-116 = test: NCI screen, growth of human tumor cells: Colon Cancer HCT-116; details: HCT-116 (Colon Cancer), 10^−4 molar
Procedure, shortened: as §1

BT-549 = test: NCI screen, growth of human tumor cells: Breast Cancer BT-549; details: BT-549 (Breast Cancer), 10^−4 molar
Procedure, shortened: as §1

RPMI-8226 = test: NCI screen, growth of human tumor cells: Leukemia RPMI-8226; details: RPMI-8226 (Leukemia), 10^−4 molar
Procedure, shortened: as §1

ACHN = test: NCI screen, growth of human tumor cells: Renal Cancer ACHN; details: ACHN (Renal Cancer), 10^−4 molar
Procedure, shortened: as §1

SK-MEL-28 = test: NCI screen, growth of human tumor cells: Melanoma SK-MEL-28; details: SK-MEL-28 (Melanoma), 10^−4 molar
Procedure, shortened: as §1

MOLT-4 = test: NCI screen, growth of human tumor cells: Leukemia MOLT-4; details: MOLT-4 (Leukemia), 10^−4 molar
Procedure, shortened: as §1

SNB-19 = test: NCI screen, growth of human tumor cells: CNS Cancer SNB-19; details: SNB-19 (CNS Cancer), 10^−4 molar
Procedure, shortened: as §1

NCI-H226 = test: NCI screen, growth of human tumor cells: Non-Small Cell Lung NCI-H226; details: NCI-H226 (Non-Small Cell Lung), 10^−4 molar
Procedure, shortened: as §1

M14 = test: NCI screen, growth of human tumor cells: Melanoma M14; details: M14 (Melanoma), 10^−4 molar
Procedure, shortened: as §1

OVCAR-5 = test: NCI screen, growth of human tumor cells: Ovarian Cancer OVCAR-5; details: OVCAR-5 (Ovarian Cancer), 10^−4 molar
Procedure, shortened: as §1

OVCAR-3 = test: NCI screen, growth of human tumor cells: Ovarian Cancer OVCAR-3; details: OVCAR-3 (Ovarian Cancer), 10^−4 molar
Procedure, shortened: as §1

HCT-15 = test: NCI screen, growth of human tumor cells: Colon Cancer HCT-15; details: HCT-15 (Colon Cancer), 10^−4 molar
Procedure, shortened: as §1

human cancer cells = test: NCI screen summary over the cancers tested (negative growth of human cancer cells); details: 10^−4 M conc.; cancers with negative growth / cancers tested
Method: as §2
The derivatives in the tables are grouped using the same category as in the tables 1-6.

HS 578T = test: NCI screen, growth of human tumor cells: Breast Cancer HS 578T; details: HS 578T (Breast Cancer), 10^−4 molar
Procedure, shortened: as §1

MCF7/ADR-RES = test: NCI screen, growth of human tumor cells: Breast Cancer MCF7/ADR-RES; details: MCF7/ADR-RES (Breast Cancer), 10^−4 molar
Procedure, shortened: as §1

HT29 = test: NCI screen, growth of human tumor cells: Colon Cancer HT29; details: HT29 (Colon Cancer), 10^−4 molar
Procedure, shortened: as §1

HCC-2998 = test: NCI screen, growth of human tumor cells: HCC-2998 (listed under Non-Small Cell Lung); details: HCC-2998, 10^−4 molar
Procedure, shortened: as §1

SF-268 = test: NCI screen, growth of human tumor cells: CNS Cancer SF-268; details: SF-268 (CNS Cancer), 10^−4 molar
Procedure, shortened: as §1

MDA-N = test: NCI screen, growth of human tumor cells: Breast Cancer MDA-N; details: 10^−4 molar
Method: as §2

MDA-MB-231/ATCC = test: NCI screen, growth of human tumor cells: Breast Cancer MDA-MB-231/ATCC; details: MDA-MB-231/ATCC (Breast Cancer), 10^−4 molar
Procedure, shortened: as §1

SF-539 = test: NCI screen, growth of human tumor cells: CNS Cancer SF-539; details: SF-539 (CNS Cancer), 10^−4 molar
Procedure, shortened: as §1

MCF 7 = test: NCI screen, growth of human tumor cells: Breast Cancer MCF 7; details: MCF 7 (Breast Cancer), 10^−4 molar
Procedure, shortened: as §1

OVCAR-8 = test: NCI screen, growth of human tumor cells: Ovarian Cancer OVCAR-8; details: OVCAR-8 (Ovarian Cancer), 10^−4 molar
Procedure, shortened: as §1

LOXIMVI = test: NCI screen, growth of human tumor cells: Melanoma LOXIMVI; details: LOXIMVI (Melanoma), 10^−4 molar
Procedure, shortened: as §1

SK-MEL-5 = test: NCI screen, growth of human tumor cells: Melanoma SK-MEL-5; details: SK-MEL-5 (Melanoma), 10^−4 molar
Procedure, shortened: as §1

SN12C = test: NCI screen, growth of human tumor cells: Renal Cancer SN12C; details: SN12C (Renal Cancer), 10^−4 molar
Procedure, shortened: as §1

## CCOCC1(COCC)S(=O)(=O)OCCOS1(=O)=O [NSC 698120]
DU-145
  percent of growth of human tumor cells: 24%
RXF-393
  percent of growth of human tumor cells: −36%
CAKI-1
  percent of growth of human tumor cells: 7%
HOP-62
  percent of growth of human tumor cells: 23%
UACC-62
  percent of growth of human tumor cells: −36%
UACC-257
  percent of growth of human tumor cells: −14%
NCI-H522
  % Growth: −83%
SW620
  percent of growth of human tumor cells: −3%
786-0
  percent of growth of human tumor cells: 15%
MDA-MB-435
  percent of growth of human tumor cells: 1%
EKVX
  % Growth: −99%
OVCAR-4
  % Growth: −88%
U-251
  percent of growth of human tumor cells: −47%
NCI-H23
  % Growth: −72%
IGROVI
  percent of growth of human tumor cells: −28%
NCI-H460
  percent of growth of human tumor cells: −38%
NCI-H322M
  percent of growth of human tumor cells: 20%
HCT-116
  percent of growth of human tumor cells: −6%
BT-549
  percent of growth of human tumor cells: −4%
RPMI-8226
  percent of growth of human tumor cells: 10%
ACHN
  percent of growth of human tumor cells: 18%
SK-MEL-28
  percent of growth of human tumor cells: 12%
MOLT-4
  percent of growth of human tumor cells: 23%
SNB-19
  percent of growth of human tumor cells: 14%
NCI-H226
  percent of growth of human tumor cells: 0%
M14
  percent of growth of human tumor cells: −36%
OVCAR-5
  percent of growth of human tumor cells: −28%
OVCAR-3
  percent of growth of human tumor cells: −13%
HCT-15
  percent of growth of human tumor cells: −27%
Human cancer cells
  Percentage of cancers showing negative growth cancers tested: 10^−4 M conc. = 22/42 = 52%
HS 578T
  percent of growth of human tumor cells: 15%
MCF7/ADR-RES
  percent of growth of human tumor cells: −26%
HT29
  percent of growth of human tumor cells: −3%
HCC-2998
  % Growth: −92%
SF-268
  percent of growth of human tumor cells: 21%
MDA-N
  percent of growth of human tumor cells: 3%
MDA-MB-231/ATCC
  percent of growth of human tumor cells: 18%
SF-539
  percent of growth of human tumor cells: 20%
MCF 7
  percent of growth of human tumor cells: 27%
OVCAR-8
  percent of growth of human tumor cells: −43%
LOXIMVI
  percent of growth of human tumor cells: −25%
SK-MEL-5
  percent of growth of human tumor cells: 25%
SN12C
  percent of growth of human tumor cells: 24%
